Results from US20260297085A1, “1 H-PYRROLO[2,3-B]PYRIDIN-4-YL]-2-OXOPYRROLIDINE-3-CARBONITRILE DERIVATIVES AS TYROSINE KINASE 2 (TYK2) INHIBITORS FOR THE TREATMENT OF INFLAMMATORY DISEASES” (BIOGEN MA INC., priority 2023, published 2026).
Where a name gives a salt, the structure may show the parent alone.

What was measured:
[1] = biological target: T1, human TYK2 kinase domain (JH1) (Homo sapiens, UniProt P29597); assay: JH1 biochemical assay for TYK2 (ADP-Glo kinase assay, recombinant JH1 catalytic domain, JAK3-974 peptide, 10 μM ATP)
T1 construct: recombinantly generated catalytic kinase (also known as JH1) domain of human JAK1, JAK2, JAK3 and TYK2
T1 sequence (P29597 897-1176 limits assumed): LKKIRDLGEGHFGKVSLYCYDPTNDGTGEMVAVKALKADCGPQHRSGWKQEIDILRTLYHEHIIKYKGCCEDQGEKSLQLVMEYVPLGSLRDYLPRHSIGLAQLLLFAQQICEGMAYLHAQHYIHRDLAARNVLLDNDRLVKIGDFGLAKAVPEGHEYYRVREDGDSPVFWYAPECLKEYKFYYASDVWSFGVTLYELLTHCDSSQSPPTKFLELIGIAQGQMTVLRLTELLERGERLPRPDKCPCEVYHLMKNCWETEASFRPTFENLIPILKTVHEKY
Method in brief: (§1)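 Reactions contain 50 μM peptide and run 100 minutes, with enzyme at 4, 0.2, 0.3 and 2 nM for JAK1, JAK2, JAK3 and TYK2. Generated ADP is read by luminescence; IC50 derives from normalized dose-response curves.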

[2] = biological target: T2, human JAK1 kinase domain (JH1) (Homo sapiens, UniProt P23458); assay: JH1 biochemical assay for JAK1 (ADP-Glo kinase assay, recombinant JH1 catalytic domain, JAK3-342 peptide, 35 μM ATP)
T2 construct: recombinantly generated catalytic kinase (also known as JH1) domain of human JAK1, JAK2, JAK3 and TYK2
Method in brief: as §1

[3] = biological target: T3, human JAK2 kinase domain (JH1) (Homo sapiens, UniProt O60674); assay: JH1 biochemical assay for JAK2 (ADP-Glo kinase assay, recombinant JH1 catalytic domain, JAK3-974 peptide, 15 μM ATP)
T3 construct: recombinantly generated catalytic kinase (also known as JH1) domain of human JAK1, JAK2, JAK3 and TYK2
Method in brief: as §1

[4] = biological target: T4, human JAK3 kinase domain (JH1) (Homo sapiens, UniProt P52333); assay: JH1 biochemical assay for JAK3 (ADP-Glo kinase assay, recombinant JH1 catalytic domain, JAK3-974 peptide, 4 μM ATP)
T4 construct: recombinantly generated catalytic kinase (also known as JH1) domain of human JAK1, JAK2, JAK3 and TYK2
Method in brief: as §1

[5] = biological target: Tyk2 kinase activity on STAT4 in NK92 cells (Homo sapiens, UniProt P29597); assay: pSTAT4 cell assay (MSD; NK92 cells, 30 ng/mL IL2 stimulation); format: cell-based; details: 30 ng/mL IL2, 15 minutes
Method in brief: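 NK92, serum-starved; cpd 1 hr, 10-pt 4-fold from 10 μM; IL2 30 ng/mL 15 min; lyse; MSD with anti-STAT4 Abs; IC50 by 4-PL fit.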

[6] = biological target: JAK2 kinase activity on STAT5 in TF1 cells (Homo sapiens, UniProt O60674); assay: pSTAT5 cell assay (MSD; TF1 cells, 30 ng/mL IL-3 stimulation); format: cell-based; details: 30 ng/mL IL-3, 15 minutes
Method in brief: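 Serum-starved TF1 cells with native JAK2/STAT5 were pretreated 1 h with compound (10-point four-fold dilutions from 10 μM), then stimulated 15 min with 30 ng/mL IL-3. pSTAT5 in lysates quantified by MSD immunoassay; normalized percent activity fitted to a 4-parameter logistic curve for IC50.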

[7] = biological target: JAK1 kinase activity on STAT3 in TF1 cells (Homo sapiens, UniProt P23458); assay: pSTAT3 cell assay (MSD; TF1 cells, 30 ng/mL IL-6 stimulation); format: cell-based; details: 30 ng/mL IL-6, 15 minutes
Method in brief: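 Serum-starved TF1 cells were pretreated with compound for 1 hour (10-point, four-fold dilutions from 10 μM), then stimulated with IL-6 for 15 minutes. Lysates were assayed for pSTAT3 by MSD with anti-STAT3 antibodies; IC50 came from a 4-parameter logistic fit of normalized percent activity.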

Sequence of JAK2 kinase activity on STAT5 in TF1 cells (O60674 whole entry): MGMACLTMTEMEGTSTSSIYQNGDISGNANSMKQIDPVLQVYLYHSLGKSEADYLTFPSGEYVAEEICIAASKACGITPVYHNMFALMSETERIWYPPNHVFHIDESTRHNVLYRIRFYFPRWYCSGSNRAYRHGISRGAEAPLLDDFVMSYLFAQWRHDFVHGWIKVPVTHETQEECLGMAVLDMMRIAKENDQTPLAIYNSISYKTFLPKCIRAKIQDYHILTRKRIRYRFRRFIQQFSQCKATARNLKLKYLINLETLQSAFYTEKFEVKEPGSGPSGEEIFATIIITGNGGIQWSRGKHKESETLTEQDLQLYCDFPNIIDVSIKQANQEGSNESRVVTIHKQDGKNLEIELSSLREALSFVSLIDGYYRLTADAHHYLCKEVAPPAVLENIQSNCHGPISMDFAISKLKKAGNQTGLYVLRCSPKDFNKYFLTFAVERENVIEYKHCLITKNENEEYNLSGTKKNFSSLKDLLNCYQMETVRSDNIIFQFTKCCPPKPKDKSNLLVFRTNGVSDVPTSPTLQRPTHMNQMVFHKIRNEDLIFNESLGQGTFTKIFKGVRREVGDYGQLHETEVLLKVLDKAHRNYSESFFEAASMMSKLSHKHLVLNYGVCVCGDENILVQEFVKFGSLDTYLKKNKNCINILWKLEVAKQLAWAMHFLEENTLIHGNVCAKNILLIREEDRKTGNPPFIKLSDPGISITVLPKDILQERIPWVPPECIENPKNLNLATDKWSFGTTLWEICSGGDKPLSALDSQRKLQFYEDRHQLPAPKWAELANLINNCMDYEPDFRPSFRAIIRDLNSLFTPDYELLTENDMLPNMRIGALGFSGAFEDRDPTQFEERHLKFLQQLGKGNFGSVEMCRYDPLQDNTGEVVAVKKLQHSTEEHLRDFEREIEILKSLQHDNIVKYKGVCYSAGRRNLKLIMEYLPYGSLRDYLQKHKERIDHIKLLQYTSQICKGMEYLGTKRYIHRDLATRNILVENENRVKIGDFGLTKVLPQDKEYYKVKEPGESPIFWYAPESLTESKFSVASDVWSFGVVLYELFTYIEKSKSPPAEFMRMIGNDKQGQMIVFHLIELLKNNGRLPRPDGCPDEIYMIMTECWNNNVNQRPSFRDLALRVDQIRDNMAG
Sequence of Tyk2 kinase activity on STAT4 in NK92 cells (P29597 whole entry): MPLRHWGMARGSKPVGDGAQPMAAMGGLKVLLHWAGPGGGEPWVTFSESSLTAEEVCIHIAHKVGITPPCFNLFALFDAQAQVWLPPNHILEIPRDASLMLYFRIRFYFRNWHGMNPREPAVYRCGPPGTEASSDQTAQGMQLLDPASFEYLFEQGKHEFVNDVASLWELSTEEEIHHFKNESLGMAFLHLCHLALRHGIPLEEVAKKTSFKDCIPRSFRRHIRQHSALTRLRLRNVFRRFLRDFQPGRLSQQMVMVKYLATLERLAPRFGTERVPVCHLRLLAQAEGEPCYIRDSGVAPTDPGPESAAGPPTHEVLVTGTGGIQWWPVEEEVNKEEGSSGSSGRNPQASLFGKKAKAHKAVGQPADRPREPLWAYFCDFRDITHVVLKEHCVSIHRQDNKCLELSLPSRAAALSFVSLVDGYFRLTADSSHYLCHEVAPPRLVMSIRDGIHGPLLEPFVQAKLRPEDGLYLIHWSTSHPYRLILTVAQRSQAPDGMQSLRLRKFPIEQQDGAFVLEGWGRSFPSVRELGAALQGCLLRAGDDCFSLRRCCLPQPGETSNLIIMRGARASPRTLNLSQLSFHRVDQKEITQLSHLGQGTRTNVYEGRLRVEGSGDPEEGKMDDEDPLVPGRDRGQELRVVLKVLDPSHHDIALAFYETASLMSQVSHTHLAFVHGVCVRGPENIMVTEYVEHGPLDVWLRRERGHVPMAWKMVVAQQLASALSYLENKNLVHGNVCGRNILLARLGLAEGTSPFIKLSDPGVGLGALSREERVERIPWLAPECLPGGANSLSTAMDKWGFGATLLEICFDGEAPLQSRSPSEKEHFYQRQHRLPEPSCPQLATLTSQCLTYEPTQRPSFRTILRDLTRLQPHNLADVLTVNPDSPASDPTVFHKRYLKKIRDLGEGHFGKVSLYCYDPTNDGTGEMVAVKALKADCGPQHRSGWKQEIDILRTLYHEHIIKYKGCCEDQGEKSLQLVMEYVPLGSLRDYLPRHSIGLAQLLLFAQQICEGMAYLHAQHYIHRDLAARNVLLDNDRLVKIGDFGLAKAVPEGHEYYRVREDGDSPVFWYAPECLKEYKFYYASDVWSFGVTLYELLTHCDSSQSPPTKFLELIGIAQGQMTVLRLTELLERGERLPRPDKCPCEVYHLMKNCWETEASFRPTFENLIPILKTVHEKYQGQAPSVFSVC
Sequence of JAK1 kinase activity on STAT3 in TF1 cells (P23458 whole entry): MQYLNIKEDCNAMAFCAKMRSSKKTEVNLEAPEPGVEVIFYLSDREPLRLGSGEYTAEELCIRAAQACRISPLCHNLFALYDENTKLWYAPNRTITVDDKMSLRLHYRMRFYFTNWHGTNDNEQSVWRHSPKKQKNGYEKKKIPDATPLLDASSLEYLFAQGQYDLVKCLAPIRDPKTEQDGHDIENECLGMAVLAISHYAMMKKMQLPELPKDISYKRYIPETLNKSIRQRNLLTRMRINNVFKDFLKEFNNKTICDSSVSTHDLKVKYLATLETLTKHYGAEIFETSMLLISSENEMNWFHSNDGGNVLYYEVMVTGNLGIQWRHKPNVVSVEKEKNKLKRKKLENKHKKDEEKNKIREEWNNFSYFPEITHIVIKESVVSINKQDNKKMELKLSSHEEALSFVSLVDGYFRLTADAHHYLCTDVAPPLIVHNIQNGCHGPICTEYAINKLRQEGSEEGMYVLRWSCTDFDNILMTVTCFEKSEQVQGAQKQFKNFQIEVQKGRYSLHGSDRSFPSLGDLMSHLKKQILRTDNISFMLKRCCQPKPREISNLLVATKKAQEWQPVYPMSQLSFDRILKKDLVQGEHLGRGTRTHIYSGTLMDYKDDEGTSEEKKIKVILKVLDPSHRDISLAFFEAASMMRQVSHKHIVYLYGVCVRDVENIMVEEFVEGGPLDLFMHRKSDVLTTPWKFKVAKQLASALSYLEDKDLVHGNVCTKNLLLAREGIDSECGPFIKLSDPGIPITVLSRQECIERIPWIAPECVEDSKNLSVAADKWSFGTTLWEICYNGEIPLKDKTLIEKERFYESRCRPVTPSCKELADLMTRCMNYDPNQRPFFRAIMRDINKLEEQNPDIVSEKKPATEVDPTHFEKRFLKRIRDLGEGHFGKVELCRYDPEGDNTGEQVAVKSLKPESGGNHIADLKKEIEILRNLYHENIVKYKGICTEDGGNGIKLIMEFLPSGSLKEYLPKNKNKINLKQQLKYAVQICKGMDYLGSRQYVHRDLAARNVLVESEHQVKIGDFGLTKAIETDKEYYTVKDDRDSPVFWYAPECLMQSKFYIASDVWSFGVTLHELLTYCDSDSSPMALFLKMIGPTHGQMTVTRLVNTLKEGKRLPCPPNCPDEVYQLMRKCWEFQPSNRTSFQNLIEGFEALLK
T3 sequence (O60674 849-1124 limits assumed): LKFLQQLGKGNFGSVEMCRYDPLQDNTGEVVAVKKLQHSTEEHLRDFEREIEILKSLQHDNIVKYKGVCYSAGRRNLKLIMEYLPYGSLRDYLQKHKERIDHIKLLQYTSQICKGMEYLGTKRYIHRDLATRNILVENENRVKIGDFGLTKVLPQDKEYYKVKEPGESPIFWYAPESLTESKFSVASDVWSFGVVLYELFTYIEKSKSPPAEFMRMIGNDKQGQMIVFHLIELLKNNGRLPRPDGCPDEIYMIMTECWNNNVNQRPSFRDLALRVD
T2 sequence (P23458 875-1153 limits assumed): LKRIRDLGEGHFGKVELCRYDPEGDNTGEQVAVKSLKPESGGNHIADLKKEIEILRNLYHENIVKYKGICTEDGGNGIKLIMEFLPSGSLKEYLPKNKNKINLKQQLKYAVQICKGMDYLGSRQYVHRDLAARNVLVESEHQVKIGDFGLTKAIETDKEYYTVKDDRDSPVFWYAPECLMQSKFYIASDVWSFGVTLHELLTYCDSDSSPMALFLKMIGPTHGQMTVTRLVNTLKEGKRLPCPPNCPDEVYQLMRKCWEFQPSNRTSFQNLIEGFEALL
T4 sequence (P52333 822-1111 limits assumed): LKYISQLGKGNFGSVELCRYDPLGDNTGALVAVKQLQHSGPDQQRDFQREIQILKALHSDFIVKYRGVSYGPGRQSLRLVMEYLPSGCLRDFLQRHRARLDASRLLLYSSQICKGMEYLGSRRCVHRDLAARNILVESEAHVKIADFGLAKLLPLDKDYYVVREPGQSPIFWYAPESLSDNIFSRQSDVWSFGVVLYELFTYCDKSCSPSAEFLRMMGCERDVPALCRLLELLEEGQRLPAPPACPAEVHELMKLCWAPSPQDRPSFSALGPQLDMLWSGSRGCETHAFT

SMILES | IC50 ([1]; TYK2 JH1, ADP-Glo) [µM] | IC50 ([2]; JAK1 JH1, ADP-Glo) [µM] | IC50 ([3]; JAK2 JH1, ADP-Glo) [µM] | IC50 ([4]; JAK3 JH1, ADP-Glo) [µM] | IC50 [5] [µM] | IC50 [6] [µM] | IC50 [7] [µM] | IC50 ([1]; JH1 kinase domain, ADP-Glo) [µM] | IC50 ([2]; JH1 kinase domain, ADP-Glo) [µM] | IC50 ([3]; JH1 kinase domain, ADP-Glo) [µM] | IC50 ([4]; JH1 kinase domain, ADP-Glo) [µM]
C[C@@H]1CN(c2nc(-c3cnn(C4CC4)c3)cc3ncsc23)C(=O)[C@]1(C#N)C1CC1 [Example 357, (3R,4S)-3-cyclopropyl-1-(6-(1-cyclopropyl-1H-pyrazol-4-yl)thiazolo[5,4-c]pyridin-4-yl)-4-methyl-2-oxopyrrolidine-3-carbonitrile] | < 0.005 | < 0.1 | < 0.1 | < 0.1 | 0.02 to 0.05 | < 0.1 | < 0.1 | – | – | – | –
Cc1ccc(-c2cn3nccc3c(N3C[C@@H](C)[C@@](C#N)(C4CC4)C3=O)n2)cn1 [Example 233, (3R,4S)-3-cyclopropyl-4-methyl-1-(6-(6-methylpyridin-3-yl)pyrazolo[1,5-a]pyrazin-4-yl)-2-oxopyrrolidine-3-carbonitrile trifluoroacetate] | < 0.005 | < 0.1 | 0.1 to 1 | < 0.1 | > 0.1 | 1 to 5 | 1 to 5 | – | – | – | –
C[C@@H]1CN(c2ccnn3cc(-c4cnn(CC#N)c4)cc23)C(=O)[C@]1(C#N)C1CC1 [Example 168, (3R,4S)-1-(6-(1-(cyanomethyl)-1H-pyrazol-4-yl)pyrrolo[1,2-b]pyridazin-4-yl)-3-cyclopropyl-4-methyl-2-oxopyrrolidine-3-carbonitrile] | – | – | – | – | 0.05 to 0.1 | 1 to 5 | 1 to 5 | < 0.005 | < 0.1 | < 0.1 | < 0.1
C[C@H]1CN(c2ccnn3cc(-c4cnn(C)c4)cc23)C(=O)[C@]1(C#N)C1CC1 [Example 22, (3R,4R)-3-cyclopropyl-4-methyl-1-(6-(1-methyl-1H-pyrazol-4-yl)pyrrolo[1,2-b]pyridazin-4-yl)-2-oxopyrrolidine-3-carbonitrile] | – | – | – | – | > 0.1 | > 10 | > 10 | 0.05 to 0.1 | 1 to 5 | 1 to 5 | 1 to 5
Cc1nn(C)cc1-c1cc2c(N3C[C@@H](C)[C@@](C#N)(C4CC4)C3=O)ccnn2c1 [Example 165, (3R,4S)-3-cyclopropyl-1-(6-(1,3-dimethyl-1H-pyrazol-4-yl)pyrrolo[1,2-b]pyridazin-4-yl)-4-methyl-2-oxopyrrolidine-3-carbonitrile] | – | – | – | – | 0.02 to 0.05 | 5 to 10 | 1 to 5 | < 0.005 | 0.1 to 1 | 0.1 to 1 | 0.1 to 1
C[C@@H]1CN(c2nc(-c3cnc(N(C)C)nc3)cn3nccc23)C(=O)[C@]1(C#N)C1CC1 [Example 264, (3R,4S)-3-cyclopropyl-1-(6-(2-(dimethylamino)pyrimidin-5-yl)pyrazolo[1,5-a]pyrazin-4-yl)-4-methyl-2-oxopyrrolidine-3-carbonitrile trifluoroacetate] | 0.005 to 0.02 | 0.1 to 1 | 1 to 5 | 0.1 to 1 | 0.05 to 0.1 | > 10 | > 10 | – | – | – | –
C[C@@H]1CN(c2nc(-c3ccc(=O)n(C(F)F)c3)cn3nccc23)C(=O)[C@]1(C#N)C1CC1 [Example 210, (3R,4S)-3-cyclopropyl-1-(6-(1-(difluoromethyl)-6-oxo-1,6-dihydropyridin-3-yl)pyrazolo[1,5-a]pyrazin-4-yl)-4-methyl-2-oxopyrrolidine-3-carbonitrile] | – | – | – | – | > 0.1 | 5 to 10 | 1 to 5 | < 0.005 | < 0.1 | 0.1 to 1 | < 0.1
C[C@@H]1CN(c2ncnc3[nH]c(-c4cnn(C)c4)cc23)C(=O)[C@]1(C#N)C1CC1 [Example 6, (3R,4S)-3-cyclopropyl-4-methyl-1-(6-(1-methyl-1H-pyrazol-4-yl)-7H-pyrrolo[2,3-d]pyrimidin-4-yl)-2-oxopyrrolidine-3-carbonitrile] | – | – | – | – | > 0.1 | > 10 | > 10 | 0.05 to 0.1 | 1 to 5 | 1 to 5 | 1 to 5
C[C@@H]1CN(c2ccnn3cc(-n4ccnc4)cc23)C(=O)[C@]1(C#N)C1CC1 [Example 336, (3R,4S)-1-(6-(1H-imidazol-1-yl)pyrrolo[1,2-b]pyridazin-4-yl)-3-cyclopropyl-4-methyl-2-oxopyrrolidine-3-carbonitrile] | 0.02 to 0.05 | 0.1 to 1 | 1 to 5 | 0.1 to 1 | > 0.1 | > 10 | > 10 | – | – | – | –
Cc1nn(C)cc1-c1cn2nccc2c(N2C[C@@H](C)[C@@](C#N)(C3CC3)C2=O)n1 [Example 208, (3R,4S)-3-cyclopropyl-1-(6-(1,3-dimethyl-1H-pyrazol-4-yl)pyrazolo[1,5-a]pyrazin-4-yl)-4-methyl-2-oxopyrrolidine-3-carbonitrile] | – | – | – | – | 0.05 to 0.1 | 1 to 5 | 1 to 5 | < 0.005 | < 0.1 | < 0.1 | < 0.1
C[C@@H]1CN(c2nc(-c3cnn(C)c3)cn3ncc(F)c23)C(=O)[C@]1(C#N)C1CC1 [Example 187, (3R,4S)-3-cyclopropyl-1-(3-fluoro-6-(1-methyl-1H-pyrazol-4-yl)pyrazolo[1,5-a]pyrazin-4-yl)-4-methyl-2-oxopyrrolidine-3-carbonitrile] | – | – | – | – | 0.05 to 0.1 | 1 to 5 | 1 to 5 | < 0.005 | < 0.1 | 0.1 to 1 | < 0.1
COc1cc(-c2cc3c(N4CC[C@](C#N)(C5CC5)C4=O)ccnc3[nH]2)ccn1 [Example 5, (R)-3-cyclopropyl-1-(2-(2-methoxypyridin-4-yl)-1H-pyrrolo[2,3-b]pyridin-4-yl)-2-oxopyrrolidine-3-carbonitrile] | – | – | – | – | > 0.1 | > 10 | 5 to 10 | > 0.1 | 1 to 5 | 0.1 to 1 | 1 to 5
[2H]C([2H])([2H])n1cc(-c2cn3ncc(F)c3c(N3C[C@@H](C)[C@@](C#N)(C4CC4)C3=O)n2)cn1 [Example 211, (3R,4S)-3-cyclopropyl-1-(3-fluoro-6-(1-(methyl-d3)-1H-pyrazol-4-yl)pyrazolo[1,5-a]pyrazin-4-yl)-4-methyl-2-oxopyrrolidine-3-carbonitrile] | – | – | – | – | 0.05 to 0.1 | 1 to 5 | 1 to 5 | < 0.005 | < 0.1 | 0.1 to 1 | < 0.1
C[C@@H]1CN(c2ccnn3cc(-c4cnn(-c5cccnc5)c4)cc23)C(=O)[C@]1(C#N)C1CC1 [Example 159, (3R,4S)-3-cyclopropyl-4-methyl-2-oxo-1-(6-(1-(pyridin-3-yl)-1H-pyrazol-4-yl)pyrrolo[1,2-b]pyridazin-4-yl)pyrrolidine-3-carbonitrile] | – | – | – | – | 0.05 to 0.1 | 5 to 10 | 1 to 5 | < 0.005 | 0.1 to 1 | 0.1 to 1 | 0.1 to 1
C[C@@H]1CN(c2nc(-c3cnn(C)c3)cn3nccc23)C(=O)[C@]1(C#N)C1CC1 [Example 184, (3R,4S)-3-cyclopropyl-4-methyl-1-(6-(1-methyl-1H-pyrazol-4-yl)pyrazolo[1,5-a]pyrazin-4-yl)-2-oxopyrrolidine-3-carbonitrile] | – | – | – | – | 0.02 to 0.05 | 0.1 to 1 | 0.1 to 1 | < 0.005 | < 0.1 | < 0.1 | < 0.1
COC[C@@]1(C#N)CCN(c2ccnn3cc(-c4cnn(C)c4)cc23)C1=O (single isomer, unassigned) [Example 40] | – | – | – | – | > 0.1 | > 10 | > 10 | 0.05 to 0.1 | 1 to 5 | 0.1 to 1 | 0.1 to 1
